The source of these data is ChEMBL document CHEMBL1141247, “Hydroxyalkenylresorcinols from Stylogyne turbacensis” (J Nat Prod, 2007).

In test [1] the test system is NCI-H460. In words: Cytotoxicity against human NCI-H460. In kind it is functional, cell-based.
The test system of another test is Trypanosoma cruzi. Put plainly: Antitrypanosomal activity against Trypanosoma cruzi. In kind it is functional, organism-based.
For another test, the system named is Vero. In words: Cytotoxicity against […] Vero cells by MTT assay. The test is classed as cell-based, Homo sapiens. The note with it: Chlorocebus sabaeus.
A further test has as its system Leishmania donovani. Put plainly: Antileishmanial activity against Leishmania donovani. The test is classed as functional, organism-based.
The subject of a further test is MCF7. Put plainly: Cytotoxicity against human MCF7 cells. In kind it is functional, cell-based.
Test [2] has as its system NCI-H460. In words: Cytotoxicity against human NCI-H460 at 20 ug/ml. The test is classed as functional.

Take `CCCCC/C=C\C/C=C\CCCCCCCc1cc(O)cc(O)c1`: the IC50 with NCI-H460 [1] turned out to be 8.7 µM; in the test on Trypanosoma cruzi, 30 µM; with Vero, 148 µM; with Leishmania donovani it was 0.6 µM; in the test with MCF7 it was 8.7 µM.
Turning to `CCCCCC[C@H](O)C/C=C\CCCCCCCc1cc(O)cc(O)c1`, the IC50 with NCI-H460 [1] stood at 16 µM; in the test on Trypanosoma cruzi, 138 µM; in the test with Vero, 76 µM; in the test with Leishmania donovani, 7 µM; with MCF7, 14 µM.
Turning to `CC/C=C\C[C@@H](O)CC/C=C\CCCCCCCc1cc(O)cc(O)c1`, the IC50 is above 10 µM with NCI-H460 [1]; 22 µM in the test with Trypanosoma cruzi; 30 µM in the test with Vero; 3 µM in the test with Leishmania donovani; 22 µM in the test with MCF7. This compound showed an inhibition at 20 µg/mL in the test with NCI-H460 [2] below 50%.
As for `CCCCC/C=C\C/C=C\CCCCCCCc1cc(OC(C)=O)cc(OC(C)=O)c1`, the values for the IC50 in the test with Trypanosoma cruzi and with Vero were 117 µM and 124 µM, respectively.
With `CC/C=C\C/C=C\C/C=C\CCCCCCCc1cc(OC(C)=O)cc(OC(C)=O)c1`, the IC50 stood at 117 µM in the test on Trypanosoma cruzi and 138 µM in the test on Vero.
The corresponding values for `CCCCCC[C@@H](C/C=C\CCCCCCCc1cc(OC(C)=O)cc(OC(C)=O)c1)OC(C)=O` are 102 µM and 75 µM.
Regarding `CC/C=C\C[C@H](CC/C=C\CCCCCCCc1cc(OC(C)=O)cc(OC(C)=O)c1)OC(C)=O`, the IC50 with Trypanosoma cruzi was found to be 107 µM; in the test with Vero, 82 µM.
Consider `CC/C=C\C/C=C\C/C=C\CCCCCCCc1cc(O)cc(O)c1`, for which the IC50 came out at 8.7 µM with NCI-H460 [1]; 25 µM with Trypanosoma cruzi; 104 µM with Vero; 0.6 µM in the test on Leishmania donovani; 8.7 µM in the test on MCF7.
In the test on Leishmania donovani, `C[C@@H]1[C@H](O)[C@@H](C)/C=C/C=C/C=C/C=C/C=C/C=C/C=C/[C@H](O[C@@H]2O[C@H](C)[C@@H](O)[C@H](N)[C@@H]2O)C[C@@H]2O[C@](O)(C[C@@H](O)C[C@@H](O)[C@H](O)CC[C@@H](O)C[C@@H](O)CC(=O)O[C@H]1C)C[C@H](O)[C@H]2C(=O)O` [AMPHOTERICIN B] returned an IC50 of 0.09 µM.
With `CC1CS(=O)(=O)CCN1/N=C/c1ccc([N+](=O)[O-])o1` (stereo unspecified) [NIFURTIMOX], the IC50 with Trypanosoma cruzi came out at 6 µM.

For orientation: IC50 means the concentration that gives 50% inhibition. Read a low IC50 as inhibition by little substance. What is called inhibition is the drop in the measured response relative to a control, in per cent.
